Where two headings read alike, the source gives them in different places.
Key:
[1] = Storage stability: impurity content by HPLC; type: physicochemical; settings: 5° C.±3° C.
Experimental: The HPLC chromatographic method used included an assembly fitted with an automatic injector and variable wavelength UV detector set at 267 nm. The column was stainless steel with a length of 150 mm and diameter of 3.9 mm and filled with octadecylsilyl silica gel—300 Å—spherical, 5 μm. The mobile phase was carried out with sodium decanesulfonate (1.2217 g), phosphate buffer 0.05 M (pH=4.2) 380 ml, and methanol (620 ml), with a thermostatically-controlled column temperature of +40° C. and a mobile phase flow rate of 1 ml/min.
Each batch was stored over the analysis time at 5° C.±3° C.

[2] = 5° C.±3° C., aqueous vinorelbine 10 mg/ml as base
Experimental: In this experiment, pure powder form vinorelbine was compared to soft capsule encapsulated vinorelbine liquid fill composition of the invention (Formula 1.). Coloration was measured at 5° C.±3° C. by ultraviolet absorbance at 420 nm of aqueous vinorelbine at 10 mg/ml expressed as vinorelbine base. […] Mean variation was calculated as from the difference between the average of the results at the per given analysis time and the average of the results at the initial time (t0) for several batches (3 batches for the vinorelbine powder, 3 batches for the 20 mg soft capsules, 4 batches for the 30 mg soft capsules, 3 batches for the 40 mg soft capsules, 3 batches for the 80 mg soft capsules.)

CCC1=C[C@@H]2CN(C1)Cc1c([nH]c3ccccc13)[C@@](C(=O)OC)(c1cc3c(cc1OC)N(C)[C@H]1[C@@](O)(C(=O)OC)[C@H](OC(C)=O)[C@]4(CC)C=CCN5CC[C@]31[C@@H]54)C2 [Vinorelbine (powder), 3′,4′-didehydro-4′-deoxy-C′-norvincaleucoblastine]
Impurity content, max. variation (t0→analysis time) ([1]; 6 months): 0.21 Relative Area Percent | Impurity content, mean variation (t0→analysis time) ([1]; 6 months): 0.12 Relative Area Percent | Impurity content, max. variation (t0→analysis time) ([1]; 12 months): 0.44 Relative Area Percent | Impurity content, mean variation (t0→analysis time) ([1]; 12 months): 0.39 Relative Area Percent | Impurity content, max. variation (t0→analysis time) ([1]; 18 months): 0.85 Relative Area Percent | Impurity content, mean variation (t0→analysis time) ([1]; 18 months): 0.78 Relative Area Percent | Impurity content, max. variation (t0→analysis time) ([1]; 24 months): 1.32 Relative Area Percent | Impurity content, mean variation (t0→analysis time) ([1]; 24 months): 1.13 Relative Area Percent | Color evolution (absorbance at 420 nm), max. variation (t0→analysis time) ([2]; 6 months): 0.012 | Color evolution (absorbance at 420 nm), mean variation (t0→analysis time) ([2]; 6 months): 0.006 | Color evolution (absorbance at 420 nm), max. variation (t0→analysis time) ([2]; 12 months): 0.015 | Color evolution (absorbance at 420 nm), mean variation (t0→analysis time) ([2]; 12 months): 0.013 | Color evolution (absorbance at 420 nm), max. variation (t0→analysis time) ([2]; 18 months): 0.025 | Color evolution (absorbance at 420 nm), mean variation (t0→analysis time) ([2]; 18 months): 0.017 | Color evolution (absorbance at 420 nm), max. variation (t0→analysis time) ([2]; 24 months): 0.041 | Color evolution (absorbance at 420 nm), mean variation (t0→analysis time) ([2]; 24 months): 0.029

From patent US7658943B2, “Oral pharmaceutical composition for soft capsules containing vinorelbine and method of treatment” (R.P. Scherer Technologies, LLC, priority 2002, dated 2010)
